Experimental data taken from publication PMC6018554, “2-[2-(4-(trifluoromethyl)phenylamino)thiazol-4-yl]acetic acid (Activator-3) is a potent activator of AMPK” (Scientific Reports, 2018).

Columns and labels:
[1] = target: T1, recombinant human AMPK α2β2γ2 (Homo sapiens, UniProt Q9UGJ0); set-up: method as in PMID 28705990; conditions: cited from earlier work
T1 construct: purchased SignalChem; host or cells: baculovirus expression

[2] = test system: human recombinant α1β1γ1 AMPK γ1 mutants (R70G, R152G); assay: In vitro kinase assay with mutant AMPK pulled down from HEK-293T cells; type: biochemical; conditions: 100 µM AMP; γ1 mutants
Protocol: (§1) A high binding Enzyme Immuno Assay (EIA) 96-well plate (Sigma: Cat# CLS3590) was coated with Acetyl CoA Carboxylase 2 (ACC: 175–271 amino acids) peptide, a direct substrate for AMPK, 100 ng per well (1:1000 ratio, Cat# 12–491, Upstate biotechnology) and incubated overnight at 25 °C. Reaction mixture was incubated at 30 °C for 2 h and reaction was stopped by washing the plate with 0.05% Tween 20 followed by incubation with pACC primary antibody and rabbit secondary antibody as described in cell based ELISA section. Assay buffer is composed of 10 mM DTT, 100 mM magnesium acetate, 50 μM ATP and 10 mM HEPES.
(§2) R70 and R152 residues in AMPK γ1 subunit (pDONR223-PRKAG1: purchased from addgene, cat# plasmid#23718) are mutated to glycine using overlapping extension PCR. Subsequently, the mutants were transferred into a triple tagged destination vector (Streptavidin, Flag and Biotin; SFB-pDEST) by using gateway cloning technology. The mutant DNA was transfected into HEK-293T cells using PEI following standard procedures. After 4 h of transfection, media was changed to DMEM containing 10% FBS. Cells were lysed in TENNS lysis buffer (20 mM Tris pH:8.0, 100 mM NaCl, 1 mM EDTA, 10 mM Na2H2P2O7, 10 mM NaF, 10 mM Na3VO4, 0.5% NP40) and subjected to pull down using streptavidin beads followed by biotin elution. To protect the protein from dephosphorylation, cells were treated with 500 μM AICAR prior to lysis. This purified protein was estimated by using nanodrop and taken for in vitro kinase assay to check whether Activator-3 is binding to the mutant AMPK or not, and the activity of the mutant protein was assessed by comparing with the wild type protein activity.

[3] = target: T2, human recombinant α1β1γ1 AMPK γ1 mutants (R70G, R152G) (Homo sapiens, UniProt P54619, R70G); assay: as above; type: biochemical; conditions: 100 µM AMP; γ1 R70G
T2 construct: SFB triple tag (Streptavidin, Flag and Biotin; SFB-pDEST); host or cells: HEK-293T, streptavidin-bead pull-down with biotin elution
T2 sequence (P54619 whole entry R70G): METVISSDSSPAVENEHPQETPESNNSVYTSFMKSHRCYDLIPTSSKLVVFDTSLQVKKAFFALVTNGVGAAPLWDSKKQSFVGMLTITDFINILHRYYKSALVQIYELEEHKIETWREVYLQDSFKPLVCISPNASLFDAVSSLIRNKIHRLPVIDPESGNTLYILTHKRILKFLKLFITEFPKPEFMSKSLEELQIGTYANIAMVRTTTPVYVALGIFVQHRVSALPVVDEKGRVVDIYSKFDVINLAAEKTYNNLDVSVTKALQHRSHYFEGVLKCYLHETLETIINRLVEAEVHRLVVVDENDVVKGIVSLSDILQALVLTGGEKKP
T2 sequence (Q13131 whole entry partner): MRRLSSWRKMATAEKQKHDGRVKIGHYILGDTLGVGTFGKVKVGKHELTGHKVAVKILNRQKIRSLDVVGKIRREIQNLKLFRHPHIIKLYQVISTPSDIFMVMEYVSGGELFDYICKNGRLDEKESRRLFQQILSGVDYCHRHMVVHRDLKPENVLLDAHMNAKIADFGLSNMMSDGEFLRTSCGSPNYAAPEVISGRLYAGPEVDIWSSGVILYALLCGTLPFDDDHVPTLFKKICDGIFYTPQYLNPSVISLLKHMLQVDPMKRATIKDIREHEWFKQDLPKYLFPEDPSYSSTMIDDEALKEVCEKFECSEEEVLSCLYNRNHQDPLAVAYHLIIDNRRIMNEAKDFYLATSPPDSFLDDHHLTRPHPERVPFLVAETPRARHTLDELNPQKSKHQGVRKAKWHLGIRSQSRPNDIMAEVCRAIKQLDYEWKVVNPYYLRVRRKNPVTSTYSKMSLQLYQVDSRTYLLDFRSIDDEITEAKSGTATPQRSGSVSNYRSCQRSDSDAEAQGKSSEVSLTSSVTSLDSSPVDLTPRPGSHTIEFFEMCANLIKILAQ
T2 sequence (Q9Y478 2-270 partner): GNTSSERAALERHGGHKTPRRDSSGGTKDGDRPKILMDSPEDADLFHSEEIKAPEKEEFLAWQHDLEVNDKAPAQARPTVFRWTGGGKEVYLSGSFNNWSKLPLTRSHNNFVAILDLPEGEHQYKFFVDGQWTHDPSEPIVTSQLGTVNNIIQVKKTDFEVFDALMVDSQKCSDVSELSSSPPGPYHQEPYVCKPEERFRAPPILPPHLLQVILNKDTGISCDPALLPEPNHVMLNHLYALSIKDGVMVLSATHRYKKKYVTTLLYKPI
Protocol: as §1, §2

[4] = target: T3, recombinant human AMPK α1β1γ1 (Homo sapiens, UniProt P54619); assay: In vitro AMP kinase assay (pACC ELISA), α1β1γ1; type: biochemical; conditions: AMP 1 µM to 300 µM with Activator-3 30 nM
T3 construct: purchased SignalChem P47-10H-05/P48-10H-05 (for all four isozymes together); host or cells: baculovirus expression
T3 sequence (P54619 whole entry): as the sequence (P54619 whole entry R70G) above, with G70R counted along it
T3 sequence (Q13131 whole entry partner): as the sequence (Q13131 whole entry partner) above
T3 sequence (Q9Y478 whole entry partner): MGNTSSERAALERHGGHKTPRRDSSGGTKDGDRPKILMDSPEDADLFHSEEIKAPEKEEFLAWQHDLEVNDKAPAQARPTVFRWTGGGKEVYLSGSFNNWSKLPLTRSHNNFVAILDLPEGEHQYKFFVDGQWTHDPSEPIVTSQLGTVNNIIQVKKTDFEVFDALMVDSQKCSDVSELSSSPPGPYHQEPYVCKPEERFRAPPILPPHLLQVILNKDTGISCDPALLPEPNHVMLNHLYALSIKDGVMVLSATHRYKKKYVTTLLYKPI
From the text: Having observed the effect of Activator-3 on the activation of AMPK in cell based assays, we next examined whether Activator-3 could activate AMPK directly or not. […] The activity of recombinant human AMPK (α1β1γ1, α2β1γ1, α2β2γ2 and α2β2γ3) in the presence of vehicle was considered as 100%. The EC50 of Activator-3 for the activation of α1β1γ1, α2β1γ1 and α2β2γ2 isozymes were similar. However, the activity of Activator-3 against α2β2γ3 was marginally higher (Fig. 1C).
as §1

PFK1 = assay: PFK activity assay kit; type: biochemical; conditions: AMP at 100 µM and 1 mM

T1 sequence (Q9UGJ0 whole entry): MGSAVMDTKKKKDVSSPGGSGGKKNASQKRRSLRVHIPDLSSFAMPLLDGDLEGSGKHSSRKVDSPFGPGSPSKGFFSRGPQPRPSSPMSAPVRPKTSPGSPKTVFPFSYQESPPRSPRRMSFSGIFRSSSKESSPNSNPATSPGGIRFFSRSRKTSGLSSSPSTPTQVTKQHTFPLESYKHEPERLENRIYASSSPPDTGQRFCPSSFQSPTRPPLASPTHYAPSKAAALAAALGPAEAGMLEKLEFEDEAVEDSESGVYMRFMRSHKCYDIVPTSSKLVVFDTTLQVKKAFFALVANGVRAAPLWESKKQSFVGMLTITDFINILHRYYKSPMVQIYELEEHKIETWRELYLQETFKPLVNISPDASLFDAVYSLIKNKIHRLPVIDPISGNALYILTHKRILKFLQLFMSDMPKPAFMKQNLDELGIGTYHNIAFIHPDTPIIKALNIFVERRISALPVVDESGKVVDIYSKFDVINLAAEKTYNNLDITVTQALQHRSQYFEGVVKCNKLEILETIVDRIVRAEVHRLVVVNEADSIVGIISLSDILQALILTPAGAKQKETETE
T1 sequence (P54646 whole entry partner): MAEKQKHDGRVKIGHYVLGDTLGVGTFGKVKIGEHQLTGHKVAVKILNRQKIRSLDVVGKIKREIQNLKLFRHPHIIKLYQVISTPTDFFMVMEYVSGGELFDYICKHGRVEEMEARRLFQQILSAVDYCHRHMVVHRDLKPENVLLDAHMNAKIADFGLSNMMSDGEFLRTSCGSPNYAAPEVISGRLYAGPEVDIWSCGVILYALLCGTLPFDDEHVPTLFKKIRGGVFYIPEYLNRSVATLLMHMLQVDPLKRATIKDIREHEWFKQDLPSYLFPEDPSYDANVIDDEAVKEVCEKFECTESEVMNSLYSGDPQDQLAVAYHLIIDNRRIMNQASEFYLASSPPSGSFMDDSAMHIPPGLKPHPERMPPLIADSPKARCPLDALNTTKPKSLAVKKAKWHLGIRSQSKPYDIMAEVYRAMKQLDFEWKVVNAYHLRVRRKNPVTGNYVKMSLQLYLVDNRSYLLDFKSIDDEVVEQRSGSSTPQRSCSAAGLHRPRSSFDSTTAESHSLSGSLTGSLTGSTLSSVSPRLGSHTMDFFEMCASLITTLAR
T1 sequence (O43741 whole entry partner): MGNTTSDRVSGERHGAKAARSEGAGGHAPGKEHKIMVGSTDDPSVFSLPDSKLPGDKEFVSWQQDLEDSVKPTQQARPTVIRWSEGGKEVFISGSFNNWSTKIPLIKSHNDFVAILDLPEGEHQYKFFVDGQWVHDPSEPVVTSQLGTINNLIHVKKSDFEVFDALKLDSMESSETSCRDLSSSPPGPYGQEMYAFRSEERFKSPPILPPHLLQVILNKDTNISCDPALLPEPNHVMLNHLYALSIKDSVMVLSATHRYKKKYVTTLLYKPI

Row | Compound | Emax compared to basal activity [1] | AMPK activity of mutant proteins vs wild type [2] | activation of AMPK, effect of R70G mutation [3] | α1β1γ1 activity compared to 30 nM Activator-3 alone [4] | effect on PFK1 activity (PFK1)
1 | O[C@@H]1CO[C@H]2[C@@H]1OC[C@H]2Oc1nc2nc(-c3ccc(-c4ccccc4)cc3)c(Cl)cc2[nH]1 [MK-8722] | ~ 250% | – | – | – | –
2 | Nc1ncnc2c1ncn2C1OC(COP(=O)(O)O)C(O)C1O (centres unmarked) [AMP, reference compound] | – | significant reduction | did not impact | progressive enhancement | activated
